According to US11965039B2, “Compstatin analogues and their medical uses” (priority 2018, dated 2024):
Starred links: 1 amine or outer side, 2 acyl side, 3 side chain; linkers in the order of their positions; H or OH if unused. Positions of bridges follow the written chain, without caps; N, C: chain ends. Non-standard residues stand in square brackets, D forms with d. Residues, ends and D or L forms follow the SMILES beside them. Groups on a side chain read outwards from the residue. *: point of attachment. Trp(1-Me) = Cn1cc(C[C@H](N)C(=O)O)c2ccccc21; C18 diacid = O=C(O)CCCCCCCCCCCCCCCCC(=O)*; C16 diacid = O=C(O)CCCCCCCCCCCCCCC(=O)*; γGlu = O=C(O)[C@H](CCC(=O)[*:2])N[*:1]; AEEA = NCCOCCOCC(=O)O; Sar = CNCC(=O)O

Tested on: classical complement pathway
Assay: In vitro haemolysis assay (inhibition of classical complement pathway)
Type: cell-based, human
Settings: human serum, sensitized sheep red blood cells; Table 3, given as upper bounds; read-out: IC50, inhibition of hemolysis
How it was run: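 Compound dilutions preincubated 15 min at room temperature with diluted human serum (titrated per batch for 70-90% maximal haemolysis), then antibody-sensitized sheep RBC (10^7/well) added for 30 min at 37 °C in Tris/casein buffer, pH 7.4. Stopped with EDTA; haemolysis read at 405 nm; IC50 by 4PL fit.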

| SMILES | IC50 |
| --- | --- |
| CC[C@H](C)[C@H](NC(=O)[C@H](C)NC(=O)[C@H](CO)NC(=O)[C@H](CO)NC(=O)[C@H](CCC(=O)O)NC(=O)CCCCCCCCCCCCCCC(=O)O)C(=O)N[C@H]1CSSC[C@@H](C(=O)N[C@H](C(=O)N[C@@H](CCC(=O)O)C(=O)NCC(=O)N[C@@H](CCC(=O)O)C(N)=O)[C@@H](C)O)NC(=O)[C@H](CCCNC(=N)N)NC(=O)[C@H](Cc2c[nH]cn2)NC(=O)[C@H](CCC(=O)O)NC(=O)CNC(=O)[C@H](Cc2c[nH]c3ccccc23)NC(=O)[C@H](CC(=O)O)NC(=O)[C@H](CCC(N)=O)NC(=O)[C@H](Cc2c[nH]c3ccccc23)NC(=O)[C@H]([C@@H](C)CC)NC1=O [Compound 99] ({C16 diacid}-ESSAICIWQDWGEHRCTEGE-NH2; disulfide 6-16) | < 250 nM |
| CC[C@H](C)[C@H](NC(=O)[C@H](C)NC(=O)[C@H](CO)NC(=O)CNC(=O)[C@H](CCCCNC(=O)COCCOCCNC(=O)COCCOCCNC(=O)CC[C@H](NC(=O)CCCCCCCCCCCCCCC(=O)O)C(=O)O)NC(C)=O)C(=O)N[C@H]1CSSC[C@@H](C(=O)N[C@H](C(=O)N[C@@H](CCC(=O)O)C(=O)NCC(=O)N[C@@H](CCC(=O)O)C(N)=O)[C@@H](C)O)NC(=O)[C@H](CCCNC(=N)N)NC(=O)[C@H](Cc2c[nH]cn2)NC(=O)[C@H](CCC(=O)O)NC(=O)CNC(=O)[C@H](Cc2c[nH]c3ccccc23)NC(=O)[C@H](CC(=O)O)NC(=O)[C@H](CCC(N)=O)NC(=O)[C@H](Cc2c[nH]c3ccccc23)NC(=O)[C@H]([C@@H](C)CC)NC1=O [Compound 100] (Ac-K([AEEA-AEEA-γGlu-C16 diacid])GSAICIWQDWGEHRCTEGE-NH2; disulfide 6-16) | < 500 nM |
| CC[C@H](C)[C@H](NC(=O)[C@H](C)NC(=O)[C@H](CO)NC(=O)CNC(=O)[C@H](CCC(=O)O)NC(C)=O)C(=O)N[C@H]1CSSC[C@@H](C(=O)N[C@H](C(=O)N[C@@H](CCC(=O)O)C(=O)NCC(=O)N[C@@H](CCCCNC(=O)CC[C@H](NC(=O)CCCCCCCCCCCCCCC(=O)O)C(=O)O)C(N)=O)[C@@H](C)O)NC(=O)[C@H](CCCNC(=N)N)NC(=O)[C@H](Cc2c[nH]cn2)NC(=O)[C@H](CCC(=O)O)NC(=O)CNC(=O)[C@H](Cc2c[nH]c3ccccc23)NC(=O)[C@H](CC(=O)O)NC(=O)[C@H](CCC(N)=O)NC(=O)[C@H](Cc2c[nH]c3ccccc23)NC(=O)[C@H]([C@@H](C)CC)NC1=O [Compound 101] (Ac-EGSAICIWQDWGEHRCTEGK([γGlu-C16 diacid])-NH2; disulfide 6-16) | < 500 nM |
| CC[C@H](C)[C@@H]1NC(=O)[C@@H](NC(=O)[C@H](Cc2ccc(O)cc2)NC(=O)[C@H](C)NC(=O)[C@H](CO)NC(=O)CNC(=O)[C@H](CCC(=O)O)NC(C)=O)CSSC[C@@H](C(=O)N(C)CC(=O)N[C@@H](CCC(=O)O)C(=O)NCC(=O)N[C@@H](CCCCN)C(=O)N[C@@H](CCCCNC(=O)CC[C@H](NC(=O)CNC(=O)CC[C@H](NC(=O)CCCCCCCCCCCCCCCCC(=O)O)C(=O)O)C(=O)O)C(N)=O)NC(=O)[C@H](CCCNC(=N)N)NC(=O)[C@H](Cc2c[nH]cn2)NC(=O)[C@H](CCC(=O)O)NC(=O)CNC(=O)[C@H](Cc2c[nH]c3ccccc23)NC(=O)[C@H](CC(=O)O)NC(=O)[C@H](CCC(N)=O)NC(=O)[C@H](Cc2cn(C)c3ccccc23)NC1=O [Compound 110] (Ac-EGSAYCI[Trp(1-Me)]QDWGEHRC[Sar]EGKK([γGlu-Gly-γGlu-C18 diacid])-NH2; disulfide 6-16) | < 250 nM |
| CC[C@H](C)[C@@H]1NC(=O)[C@@H](NC(=O)[C@H](Cc2ccc(O)cc2)NC(=O)[C@H](CCC(=O)O)NC(=O)[C@H](CO)NC(C)=O)CSSC[C@@H](C(=O)N(C)CC(=O)N[C@@H](CCC(=O)O)C(=O)NCC(=O)N[C@@H](C)C(=O)N[C@@H](CCCCNC(=O)CC[C@H](NC(=O)CNC(=O)CC[C@H](NC(=O)CCCCCCCCCCCCCCCCC(=O)O)C(=O)O)C(=O)O)C(N)=O)NC(=O)[C@H](CCCNC(=N)N)NC(=O)[C@H](Cc2c[nH]cn2)NC(=O)[C@H](CCC(=O)O)NC(=O)CNC(=O)[C@H](Cc2c[nH]c3ccccc23)NC(=O)[C@H](CC(=O)O)NC(=O)[C@H](CCC(N)=O)NC(=O)[C@H](Cc2cn(C)c3ccccc23)NC1=O [Compound 112] (Ac-SEYCI[Trp(1-Me)]QDWGEHRC[Sar]EGAK([γGlu-Gly-γGlu-C18 diacid])-NH2; disulfide 4-14) | < 500 nM |
| CC[C@H](C)[C@@H]1NC(=O)[C@@H](NC(=O)[C@H](Cc2ccc(O)cc2)NC(=O)[C@H](CCC(=O)O)NC(=O)CNC(=O)[C@H](CO)NC(=O)[C@H](C)NC(C)=O)CSSC[C@@H](C(=O)N(C)CC(=O)N[C@@H](CCC(=O)O)C(=O)NCC(=O)N[C@@H](CCC(=O)O)C(=O)N[C@@H](CCCCNC(=O)CC[C@H](NC(=O)CNC(=O)CC[C@H](NC(=O)CCCCCCCCCCCCCCCCC(=O)O)C(=O)O)C(=O)O)C(N)=O)NC(=O)[C@H](CCCNC(=N)N)NC(=O)[C@H](Cc2c[nH]cn2)NC(=O)[C@H](CCC(=O)O)NC(=O)CNC(=O)[C@H](Cc2c[nH]c3ccccc23)NC(=O)[C@H](CC(=O)O)NC(=O)[C@H](CCC(N)=O)NC(=O)[C@H](Cc2cn(C)c3ccccc23)NC1=O [Compound 113] (Ac-ASGEYCI[Trp(1-Me)]QDWGEHRC[Sar]EGEK([γGlu-Gly-γGlu-C18 diacid])-NH2; disulfide 6-16) | < 500 nM |
| CC[C@H](C)[C@@H]1NC(=O)[C@@H](NC(=O)[C@H](Cc2ccc(O)cc2)NC(=O)[C@H](CCC(=O)O)NC(=O)[C@H](CO)NC(C)=O)CSSC[C@@H](C(=O)N(C)CC(=O)N[C@@H](CCC(=O)O)C(=O)NCC(=O)N[C@@H](CCC(=O)O)C(=O)NCCOCCOCC(=O)NCCOCCOCC(=O)N[C@@H](CCCCNC(=O)CC[C@H](NC(=O)CNC(=O)CC[C@H](NC(=O)CCCCCCCCCCCCCCCCC(=O)O)C(=O)O)C(=O)O)C(N)=O)NC(=O)[C@H](CCCNC(=N)N)NC(=O)[C@H](Cc2c[nH]cn2)NC(=O)[C@H](CCC(=O)O)NC(=O)CNC(=O)[C@H](Cc2c[nH]c3ccccc23)NC(=O)[C@H](CC(=O)O)NC(=O)[C@H](CCC(N)=O)NC(=O)[C@H](Cc2cn(C)c3ccccc23)NC1=O [Compound 117] (Ac-SEYCI[Trp(1-Me)]QDWGEHRC[Sar]EGE[AEEA][AEEA]K([γGlu-Gly-γGlu-C18 diacid])-NH2; disulfide 4-14) | < 250 nM |
| CC[C@H](C)[C@@H]1NC(=O)[C@@H](NC(=O)[C@H](Cc2ccccc2)NC(=O)[C@H](CCC(=O)O)NC(=O)[C@H](CO)NC(C)=O)CSSC[C@@H](C(=O)N(C)CC(=O)N[C@@H](CCC(=O)O)C(=O)NCC(=O)N[C@@H](C)C(=O)N[C@@H](CCCCNC(=O)COCCOCCNC(=O)CC[C@H](NC(=O)COCCOCCNC(=O)CNC(=O)CC[C@H](NC(=O)CCCCCCCCCCCCCCCCC(=O)O)C(=O)O)C(=O)O)C(N)=O)NC(=O)[C@H](CCCNC(=N)N)NC(=O)[C@H](Cc2c[nH]cn2)NC(=O)[C@H](CCC(=O)O)NC(=O)CNC(=O)[C@H](Cc2c[nH]c3ccccc23)NC(=O)[C@H](CC(=O)O)NC(=O)[C@H](CCC(N)=O)NC(=O)[C@H](Cc2cn(C)c3ccccc23)NC1=O [Compound 119] (Ac-SEFCI[Trp(1-Me)]QDWGEHRC[Sar]EGAK([AEEA-γGlu-AEEA-Gly-γGlu-C18 diacid])-NH2; disulfide 4-14) | < 100 nM |
| CC[C@H](C)[C@@H]1NC(=O)[C@@H](NC(=O)[C@H](Cc2ccccc2)NC(=O)[C@H](CCC(=O)O)NC(=O)[C@H](CO)NC(C)=O)CSSC[C@@H](C(=O)N(C)CC(=O)N[C@@H](CCC(=O)O)C(=O)NCC(=O)N[C@@H](C)C(=O)N[C@@H](CCCCNC(=O)COCCOCCNC(=O)CC[C@H](NC(=O)COCCOCCNC(=O)CNC(=O)CC[C@H](NC(=O)CCCCCCCCCCCCCCCCC(=O)O)C(=O)O)C(=O)O)C(N)=O)NC(=O)[C@H](CCCNC(=N)N)NC(=O)[C@H](Cc2c[nH]cn2)NC(=O)[C@H](CCC(=O)O)NC(=O)CNC(=O)[C@H](Cc2c[nH]c3ccccc23)NC(=O)[C@H](CCC(=O)O)NC(=O)[C@H](CCC(N)=O)NC(=O)[C@H](Cc2cn(C)c3ccccc23)NC1=O [Compound 120] (Ac-SEFCI[Trp(1-Me)]QEWGEHRC[Sar]EGAK([AEEA-γGlu-AEEA-Gly-γGlu-C18 diacid])-NH2; disulfide 4-14) | < 250 nM |
| CC[C@H](C)[C@@H]1NC(=O)[C@@H](NC(=O)[C@H](Cc2ccc(O)cc2)NC(=O)[C@H](CCC(=O)O)NC(=O)[C@H](CO)NC(C)=O)CSSC[C@@H](C(=O)N(C)CC(=O)N[C@@H](CCC(=O)O)C(=O)N[C@@H](CCCCN)C(=O)N[C@@H](CCC(=O)N[C@@H](C)C(=O)N[C@@H](CCCCNC(=O)COCCOCCNC(=O)CC[C@H](NC(=O)COCCOCCNC(=O)CNC(=O)CC[C@H](NC(=O)CCCCCCCCCCCCCCCCC(=O)O)C(=O)O)C(=O)O)C(N)=O)C(=O)O)NC(=O)[C@H](CCCNC(=N)N)NC(=O)[C@H](Cc2c[nH]cn2)NC(=O)[C@H](CCC(=O)O)NC(=O)CN(C)C(=O)[C@H](Cc2c[nH]c3ccccc23)NC(=O)[C@H](CCC(=O)O)NC(=O)[C@H](CCC(N)=O)NC(=O)[C@H](Cc2cn(C)c3ccccc23)NC1=O [Compound 121, Ac-SEYC(1)I[1-Me-Trp]QEW[Sar]EHRC(1)[Sar]EK[γGlu]A-K([17-carboxy-heptadecanoyl][γGlu]G[Peg3][γGlu][Peg3])-NH2] (Ac-SEYCI[Trp(1-Me)]QEW[Sar]EHRC[Sar]EK[γGlu]AK([AEEA-γGlu-AEEA-Gly-γGlu-C18 diacid])-NH2; disulfide 4-14) | < 250 nM |
| CC[C@H](C)[C@@H]1NC(=O)[C@@H](NC(=O)[C@H](Cc2ccc(O)cc2)NC(=O)[C@H](CCC(=O)O)NC(=O)[C@H](CO)NC(C)=O)CSSC[C@@H](C(=O)N(C)CC(=O)N[C@@H](CCC(=O)O)C(=O)NCC(=O)N[C@@H](C)C(=O)N[C@@H](CCCCNC(=O)COCCOCCNC(=O)CC[C@H](NC(=O)COCCOCCNC(=O)CNC(=O)CC[C@H](NC(=O)CCCCCCCCCCCCCCCCC(=O)O)C(=O)O)C(=O)O)C(N)=O)NC(=O)[C@H](CCCNC(=N)N)NC(=O)[C@H](Cc2c[nH]cn2)NC(=O)[C@H](CCC(=O)O)NC(=O)CNC(=O)[C@H](Cc2c[nH]c3ccccc23)NC(=O)[C@H](CCC(=O)O)NC(=O)[C@H](CCC(N)=O)NC(=O)[C@H](Cc2cn(C)c3ccccc23)NC1=O [Compound 122] (Ac-SEYCI[Trp(1-Me)]QEWGEHRC[Sar]EGAK([AEEA-γGlu-AEEA-Gly-γGlu-C18 diacid])-NH2; disulfide 4-14) | < 500 nM |
